Data from paper PMC7669869, “AdipoR1/AdipoR2 dual agonist recovers nonalcoholic steatohepatitis and related fibrosis via endoplasmic reticulum-mitochondria axis” (Nature Communications, 2020).
Non-standard residues stand in square brackets, D forms with d. Residues, ends and D or L forms follow the SMILES beside them. Nva = CCC[C@H](N)C(=O)O

Assays:
[1] = test system: AdipoR1 and AdipoR2 in LX2 cells; assay: RNA interference (AdipoR1/AdipoR2 siRNA) in LX2: PPARα, PPARγ mRNA and protein; type: cell-based, human; details: JT003 48 h, in words
Protocol: (§1) AdipoR1 and AdipoR2 siRNA as well as mock siRNA were chemically synthesized (GenePharma, China) and transfected into 60–70% confluent HepG2 and LX2 cells using Lipofectamine 3000 (ThermoFisher Scientific, USA). Dilution of siRNA and Lipofectamine 3000 reagents as well as the transfection of cells were performed following the manufacturer’s protocol. For HepG2 cell model, 5E5 cells were plated in 6-well plates and transfected with 5 μL of 20 μM stock siRNA. At 48 h following transfection, the cells were processed for 0.25 mM PA and/or 200 μM JT003 treated for another 24 h. BSA was used as the negative control. […]
(§2) Liver total RNA was extracted by using Trizol reagent following the manufacture’s instruction (TransGen Biotech, China). The concentration of RNA was measured by Nanodrop 2000 (ThermoFisher Scientific, USA). cDNA was transcribed from 10ug total RNA with First Strand cDNA synthesis Super Mix (TransGen Biotech, China). […] Reference gene β-actin was used for data normalization. mRNA expression was analyzed with specific primers listed in Supplementary Table 2.
(§3) Total protein was isolated from cells or liver samples using RIPA lysis buffer (50.0 mM Tris-HCl (pH = 8.0), 150.0 mM NaCl, 0.02% NaN3, 0.1% SDS, 1% NP-40, 0.5% deoxysodium cholate, 1 mM EDTA, […]). The protein concentration was quantified with BCA kit (Pierce, ThermoFisher Scientific, USA). […]

[2] = test system: AdipoR1 and AdipoR2 in HepG2 cells; assay: RNA interference (AdipoR1/AdipoR2 siRNA) in PA induced HepG2: PPARα, PPARγ mRNA and protein; type: cell-based, human; details: PA induced HepG2, 200 μM JT003; in words
Protocol: as §1, §2, §3

HFD induced NASH mice [3] = assay: HFD mice: oral glucose tolerance test (OGTT); type: in vivo, mouse; details: JT003 500 μg kg−1, in words
Protocol: Fasting blood glucose was measured using OneTouch UltraVue Blood Glucose Meter and test strips (Johnson&Johnson, USA) from tail nicks. After HFD fed for 14 weeks and JT003 treated for 2 weeks, oral glucose tolerance tests were performed on 8 h fasted mice. 0.5 g ml^−1 D-glucose solution (Sigma-Aldrich, USA) were oral injected to mice (2 g kg^−1 of bodyweight), blood glucose level was recorded at baseline, 15, 30, 60, 120 min

[4] = test system: liver gene expression of HFD induced NASH mice; assay: HFD mice: liver mRNA, quantitative RT-PCR; type: in vivo, mouse; details: for CD14 liver mRNA, relative expression, Supplementary Figure 11b / F4/80 liver mRNA, relative expression, Supplementary Figure 11b / IL-1b liver mRNA, relative expression, Supplementary Figure 11b / IL-6 liver mRNA, relative expression, Supplementary Figure 11b / LY6G liver mRNA, relative expression, Supplementary Figure 11b / iNOS liver mRNA, relative expression, Supplementary Figure 11b: HFD + JT003 mice
Protocol: The NASH model was conducted with feeding a HFD for 16 weeks combine with a MCD diet (Methionine/Choline Deficient Diet, Medicience, China) in the last 4 weeks. Mice administered a MCS diet (Methionine/Choline Sufficient Diet, Medicience, China) serves as control group. NAFLD or NASH mice treated with JT003 for 4 weeks were used to evaluate the pharmacological effects (n = 6; 500 μg kg^−1; daily intraperitoneal injection). Food and water were provided ad libitum. The body weight of mice was examined every 3 days. The diet was renewed every 7 days. JT003 was diluted in PBS.
Liver total RNA was extracted by using Trizol reagent following the manufacture’s instruction (TransGen Biotech, China). The concentration of RNA was measured by Nanodrop 2000 (ThermoFisher Scientific, USA). cDNA was transcribed from 10ug total RNA with First Strand cDNA synthesis Super Mix (TransGen Biotech, China). The cDNA was diluted 1/50 and 1.0 uL were used as a template for qPCR. qPCR was performed with SYBR Green qPCR Super Mix (TransGen Biotech, China) in the Light Cycler 480 Real-Time PCR System (Roche, Swiss). Reference gene β-actin was used for data normalization. mRNA expression was analyzed with specific primers listed in Supplementary Table 2.

HFD induced NASH mice [5] = assay: HFD induced NASH (NAFLD) mice: weight gain, liver appearance; type: in vivo, mouse; details: JT003 500 μg kg−1 i.p. daily 4 weeks, vs HFD, in words
Protocol: Male C57BL/6J mice of 6–8 weeks of age (20–24 g) were used in these experiments including the NAFLD model and liver fibrosis model. The mice were purchased from Guangdong Medical Laboratory Animal Center and housed in standard isolator cages and maintained on a room temperature of 25 °C and a 12 h:12 h light/dark cycle. At the end of the experiments, mice were fasted 8 h prior to sacrifice. Liver tissue and/or epididymal adipose tissue were flash frozen in liquid nitrogen (with or without RNAlater (TransGen Biotech, China)) and stored at −80 °C for future use, or fixed in 10% paraformaldehyde for histological assays. Blood samples were obtained from the posterior venous plexus of the eyes of anesthetized mice, Blood was separated by centrifugation at 1000g for 15 min Serum was then stored at −80 °C. The ethical approval has been obtained from Animal Care and Use Committee of the Sun Yat-sen University. All animals were maintained in pathogen-free conditions and cared for in accordance with policies and certification of the Association for Assessment and Accreditation of Laboratory Animal Care International (AAALAC International).
The NASH model was conducted with feeding a HFD for 16 weeks combine with a MCD diet (Methionine/Choline Deficient Diet, Medicience, China) in the last 4 weeks. […]

[6] = HFD mice, liver, JT003 500 μg kg−1, in words

With CCC[C@H](NC(=O)[C@@H]1CCCN1)C(=O)N[C@@H](CC(C)C)C(=O)N[C@@H](Cc1ccc(O)cc1)C(=O)N[C@@H](Cc1ccc(O)cc1)C(=O)N[C@@H](Cc1ccccc1)C(=O)N[C@@H](C)C(N)=O [JT003] (H-P[Nva]LYYFA-NH2) the “effect of AdipoR1 and AdipoR2 siRNA on PPARα level induced by JT003” value [1] was “reduced the increase of the PPARα level induced by JT003”, the “effect of AdipoR1 and/or AdipoR2 siRNA on JT003 mediated PPARα and PPARγ expression” value [2] was “blocked the JT003 effects on mediating PPARα and PPARγ expression” and the “HFD-induced insulin resistance, oral glucose tolerance test” value (HFD induced NASH mice [3]) was “obviously ameliorated”. For the same compound, the “CD14 liver mRNA, relative expression, Supplementary Figure 11b” value (“CD14 liver mRNA, relative expression” for short) ([4]; replicate 1) was 0.836, the “F4/80 liver mRNA, relative expression, Supplementary Figure 11b” value (shortened to “F4/80 liver mRNA, relative expression”) ([4]; replicate 1) was 1.324 and the “IL-1b liver mRNA, relative expression, Supplementary Figure 11b” value (from here on “IL-1b liver mRNA, relative expression”) ([4]; replicate 1) was 0.2358. For the same compound, the “IL-6 liver mRNA, relative expression, Supplementary Figure 11b” value (“IL-6 liver mRNA, relative expression” below) ([4]; replicate 1) was 0.3838, the “LY6G liver mRNA, relative expression, Supplementary Figure 11b” value (shortened to “LY6G liver mRNA, relative expression”) ([4]; replicate 1) was 1.539 and the “iNOS liver mRNA, relative expression, Supplementary Figure 11b” value (shortened to “iNOS liver mRNA, relative expression”) ([4]; replicate 1) was 0.7587. The “CD14 liver mRNA, relative expression” value ([4]; replicate 2) was 0.7038, the “F4/80 liver mRNA, relative expression” value ([4]; replicate 2) was 1.41 and the “IL-1b liver mRNA, relative expression” value ([4]; replicate 2) was 0.3558. The “IL-6 liver mRNA, relative expression” value ([4]; replicate 2) was 0.9338, the “LY6G liver mRNA, relative expression” value ([4]; replicate 2) was 2.089 and the “iNOS liver mRNA, relative expression” value ([4]; replicate 2) was 1.076. The “CD14 liver mRNA, relative expression” value ([4]; replicate 3) was 0.548, the “F4/80 liver mRNA, relative expression” value ([4]; replicate 3) was 0.6014 and the “IL-1b liver mRNA, relative expression” value ([4]; replicate 3) was 0.1532. The “IL-6 liver mRNA, relative expression” value ([4]; replicate 3) was 0.2832, the “LY6G liver mRNA, relative expression” value ([4]; replicate 3) was 0.8264 and the “iNOS liver mRNA, relative expression” value ([4]; replicate 3) was 1.076. The “CD14 liver mRNA, relative expression” value ([4]; replicate 4) was 0.7504, the “F4/80 liver mRNA, relative expression” value ([4]; replicate 4) was 1.0118 and the “IL-1b liver mRNA, relative expression” value ([4]; replicate 4) was 0.1494. The “IL-6 liver mRNA, relative expression” value ([4]; replicate 4) was 0.2961, the “LY6G liver mRNA, relative expression” value ([4]; replicate 4) was 2.4 and the “iNOS liver mRNA, relative expression” value ([4]; replicate 4) was 0.5084. For the same compound, the “CD14 liver mRNA, relative expression” value ([4]; replicate 5) was 0.8521, the “F4/80 liver mRNA, relative expression” value ([4]; replicate 5) was 0.7678 and the “IL-1b liver mRNA, relative expression” value ([4]; replicate 5) was 0.1331. For the same compound, the “IL-6 liver mRNA, relative expression” value ([4]; replicate 5) was 0.3878, the “iNOS liver mRNA, relative expression” value ([4]; replicate 5) was 1.435 and the “F4/80 liver mRNA, relative expression” value ([4]; replicate 6) was 1.044. For the same compound, the “IL-6 liver mRNA, relative expression” value ([4]; replicate 6) was 0.3111, the “G6Pase expression level in liver” value ([4]; HFD mice, JT003 500 μg kg−1, compared to HFD mice, in words) was “significantly elevated” and the “expression of antioxidant enzymes (SOD and CAT) and mitochondrial biogenesis regulators (PGC1α and PGC1β)” value [4, 6] was “accelerated prominently”. The “expression of genes related to fatty acid synthesis (PPARγ, ACC1, FASN, DGAT1, FAS, SCD1, ASCL3), fatty acid uptake (CD36) and cholesterol synthesis (HMGCR, SREBP-1C)” value [4, 6] was “significantly inhibited”, the “expression of genes responsible for fatty acid β-oxidation (LCAD, MCAD, UCP2, CPT1α)” value [4, 6] was “much higher” and the “overexpression of genes related to inflammation (LY6G, F4/80, IL-6, IL-1β, iNOS, CD14) and ER stress (XBP1, ATF4, CHOP, BID and GRP78)” value [4, 6] was “suppressed significantly”. For the same compound, the “upregulation of genes related to mitochondrial dysfunction (CYP2E1, BAX, NQO1, SRXN1 and GPX1)” value [4, 6] was “suppressed remarkably” and the weight gain (HFD induced NASH mice [5]) was “significantly reduced the weight gain”.
